Assay results: article PMC10178848, “Modulating fast skeletal muscle contraction protects skeletal muscle in animal models of Duchenne muscular dystrophy” (The Journal of Clinical Investigation, 2023)

Test system: mdx mouse EDL muscle
Assay: Phosphoprotein array analysis (Cell Signaling Phospho Antibody Array)
Experimental: mdx mouse EDL muscle was prepared for ex vivo analysis as described (n = 5). Muscles were incubated for 1 hour with DMSO or EDG-5506 (5 μM) and then flash frozen in liquid nitrogen. Tissue preparation and analysis were performed as recommended by the manufacturer (Cell Signaling Phospho Antibody Array, Full Moon Biosystems).

With O=c1ccc(-c2cnc(OCC(F)(F)F)nc2)nn1Cc1cncc(F)c1 [EDG-5506] the “Data Normalized to Median Signal: BAX (Phospho-Thr167)” value was 0.77, the “Fold Change T/C: 4E-BP1 (Ab-45)” value (5 μM, 1 hour) was 0.88 and the “Fold Change T/C: 4E-BP1 (Phospho-Thr45)” value (5 μM, 1 hour) was 0.74. The “Fold Change T/C: 14-3-3 theta/tau (Phospho-Ser232)” value (5 μM, 1 hour) was 1.01, the “Fold Change T/C: 14-3-3 zeta/delta (Ab-232)” value (5 μM, 1 hour) was 1.03 and the “Fold Change T/C: ACC1 (Ab-80)” value (5 μM, 1 hour) was 0.96. For the same molecule, the “Fold Change T/C: ACC1 (Phospho-Ser80)” value (5 μM, 1 hour) was 0.92, the “Fold Change T/C: AKT” value (5 μM, 1 hour) was 0.96 and the “Fold Change T/C: AKT1 (Ab-308)” value (5 μM, 1 hour) was 1.11. For the same molecule, the “Fold Change T/C: AKT1S1 (Ab-246)” value (5 μM, 1 hour) was 1.04, the “Fold Change T/C: AMPKbeta1 (Ab-182)” value (5 μM, 1 hour) was 0.89 and the “Fold Change T/C: AMPKbeta1 (Phospho-Ser182)” value (5 μM, 1 hour) was 0.80. The “Fold Change T/C: ASK1 (Ab-966)” value (5 μM, 1 hour) was 0.99, the “Fold Change T/C: ATF2 (Ab-62/44)” value (5 μM, 1 hour) was 2.53 and the “Fold Change T/C: Actin Pan(a/b/g) (Ab-55/53)” value (5 μM, 1 hour) was 0.97. The “Fold Change T/C: B-RAF (Ab-598)” value (5 μM, 1 hour) was 1.09, the “Fold Change T/C: B-RAF (Phospho-Ser446)” value (5 μM, 1 hour) was 1.05 and the “Fold Change T/C: BAX (Phospho-Thr167)” value (5 μM, 1 hour) was 0.78. The “Fold Change T/C: BCL-XL (Ab-47)” value (5 μM, 1 hour) was 1.77, the “Fold Change T/C: BCL-XL (Phospho-Ser62)” value (5 μM, 1 hour) was 1.02 and the “Fold Change T/C: BID (Ab-78)” value (5 μM, 1 hour) was 1.23. For the same molecule, the “Fold Change T/C: BLNK (Ab-96)” value (5 μM, 1 hour) was 0.97, the “Fold Change T/C: BLNK (Phospho-Tyr96)” value (5 μM, 1 hour) was 0.51 and the “Fold Change T/C: BRCA1 (Ab-1524)” value (5 μM, 1 hour) was 1.39. The “Fold Change T/C: Bax” value (5 μM, 1 hour) was 0.89, the “Fold Change T/C: Beclin-1” value (5 μM, 1 hour) was 1.49 and the “Fold Change T/C: Beta actin” value (5 μM, 1 hour) was 0.82. The “Fold Change T/C: CBL (Phospho-Tyr700)” value (5 μM, 1 hour) was 0.88, the “Fold Change T/C: CDC25C (Ab-216)” value (5 μM, 1 hour) was 1.97 and the “Fold Change T/C: CDK1/CDC2 (Phospho-Tyr15)” value (5 μM, 1 hour) was 0.83. For the same molecule, the “Fold Change T/C: CREB (Ab-133)” value (5 μM, 1 hour) was 0.71, the “Fold Change T/C: CREB (Phospho-Ser133)” value (5 μM, 1 hour) was 0.74 and the “Fold Change T/C: CaMK2-beta/gamma/delta (Ab-287)” value (5 μM, 1 hour) was 1.42. For the same molecule, the “Fold Change T/C: CaMK2-beta/gamma/delta (Phospho-Thr287)” value (5 μM, 1 hour) was 0.92, the “Fold Change T/C: CaMK2A (Phospho-Thr286)” value (5 μM, 1 hour) was 0.86 and the “Fold Change T/C: Calmodulin (Ab-79/81)” value (5 μM, 1 hour) was 1.02. The “Fold Change T/C: Caspase 8 (Phospho-Ser347)” value (5 μM, 1 hour) was 1.08, the “Fold Change T/C: Caspase 9 (Ab-196)” value (5 μM, 1 hour) was 2.31 and the “Fold Change T/C: Caspase 9 (Phospho-Ser196)” value (5 μM, 1 hour) was 0.94. The “Fold Change T/C: Catalase (Ab-385)” value (5 μM, 1 hour) was 1.34, the “Fold Change T/C: Catenin beta (Ab-37)” value (5 μM, 1 hour) was 1.21 and the “Fold Change T/C: Catenin beta (Phospho-Thr41/Ser45)” value (5 μM, 1 hour) was 0.83. The “Fold Change T/C: Chk2 (Ab-68)” value (5 μM, 1 hour) was 1.17, the “Fold Change T/C: Chk2 (Phospho-Thr68)” value (5 μM, 1 hour) was 0.51 and the “Fold Change T/C: CrkII (Ab-221)” value (5 μM, 1 hour) was 1.59. For the same molecule, the “Fold Change T/C: Cyclin D1 (Ab-286)” value (5 μM, 1 hour) was 1.10, the “Fold Change T/C: Cyclin D1 (Phospho-Thr286)” value (5 μM, 1 hour) was 1.18 and the “Fold Change T/C: Cyclin E1 (Ab-77)” value (5 μM, 1 hour) was 1.24. For the same molecule, the “Fold Change T/C: Cyclin E1 (Phospho-Thr77)” value (5 μM, 1 hour) was 1.02, the “Fold Change T/C: DARPP-32 (Ab-34)” value (5 μM, 1 hour) was 1.01 and the “Fold Change T/C: DARPP-32 (Phospho-Thr34)” value (5 μM, 1 hour) was 0.91. The “Fold Change T/C: EEF2 (Ab-56)” value (5 μM, 1 hour) was 0.84, the “Fold Change T/C: EEF2 (Phospho-Thr56)” value (5 μM, 1 hour) was 1.12 and the “Fold Change T/C: EGFR (Ab-1172)” value (5 μM, 1 hour) was 0.86. The “Fold Change T/C: Elk1 (Ab-389)” value (5 μM, 1 hour) was 1.22, the “Fold Change T/C: FADD (Phospho-Ser194)” value (5 μM, 1 hour) was 1.53 and the “Fold Change T/C: FAK (Ab-910)” value (5 μM, 1 hour) was 1.76. The “Fold Change T/C: FAK (Phospho-Ser910)” value (5 μM, 1 hour) was 1.09, the “Fold Change T/C: FGFR1 (Phospho-Tyr654)” value (5 μM, 1 hour) was 1.35 and the “Fold Change T/C: FKHRL1/FOXO3A (Ab-253)” value (5 μM, 1 hour) was 1.74. The “Fold Change T/C: FOXO1/3/4-pan (Ab-24/32)” value (5 μM, 1 hour) was 1.40, the “Fold Change T/C: GAPDH” value (5 μM, 1 hour) was 0.75 and the “Fold Change T/C: GRK2 (Ab-29)” value (5 μM, 1 hour) was 1.92. For the same molecule, the “Fold Change T/C: GRK2 (Phospho-Ser29)” value (5 μM, 1 hour) was 1.26, the “Fold Change T/C: GSK3 alpha/beta (Phospho-Tyr216/279)” value (5 μM, 1 hour) was 0.97 and the “Fold Change T/C: GSK3 beta” value (5 μM, 1 hour) was 1.12. For the same molecule, the “Fold Change T/C: Gab1 (Ab-627)” value (5 μM, 1 hour) was 1.06, the “Fold Change T/C: Gab2 (Phospho-Tyr643)” value (5 μM, 1 hour) was 1.59 and the “Fold Change T/C: HDAC1 (Ab-421)” value (5 μM, 1 hour) was 0.79. For the same molecule, the “Fold Change T/C: HDAC1 (Phospho-Ser421)” value (5 μM, 1 hour) was 1.25, the “Fold Change T/C: HDAC2 (Ab-394)” value (5 μM, 1 hour) was 1.03 and the “Fold Change T/C: HDAC2 (Phospho-Ser394)” value (5 μM, 1 hour) was 0.90. The “Fold Change T/C: HER2 (Ab-1221/1222)” value (5 μM, 1 hour) was 1.19, the “Fold Change T/C: HSP27 (Ab-82)” value (5 μM, 1 hour) was 0.82 and the “Fold Change T/C: HSP90B (Phospho-Ser226)” value (5 μM, 1 hour) was 1.00. For the same molecule, the “Fold Change T/C: IKK alpha/beta (Ab-180/181)” value (5 μM, 1 hour) was 0.91, the “Fold Change T/C: IKK-beta (Ab-199)” value (5 μM, 1 hour) was 1.62 and the “Fold Change T/C: IKK-beta (Phospho-Tyr188)” value (5 μM, 1 hour) was 1.01. For the same molecule, the “Fold Change T/C: IKK-beta (Phospho-Tyr199)” value (5 μM, 1 hour) was 0.84, the “Fold Change T/C: IKK-gamma (Ab-31)” value (5 μM, 1 hour) was 0.96 and the “Fold Change T/C: IKK-gamma (Phospho-Ser31)” value (5 μM, 1 hour) was 0.98. The “Fold Change T/C: IL-4R/CD124 (Ab-497)” value (5 μM, 1 hour) was 0.93, the “Fold Change T/C: IL-4R/CD124 (Phospho-Tyr497)” value (5 μM, 1 hour) was 0.93 and the “Fold Change T/C: IL-10R-alpha (Ab-496)” value (5 μM, 1 hour) was 1.30. The “Fold Change T/C: IL-10R-alpha (Phospho-Tyr496)” value (5 μM, 1 hour) was 0.85, the “Fold Change T/C: IRS-1 (Ab-312)” value (5 μM, 1 hour) was 1.03 and the “Fold Change T/C: IkB-alpha (Phospho-Ser32/36)” value (5 μM, 1 hour) was 1.11. For the same molecule, the “Fold Change T/C: IkB-epsilon (Ab-22)” value (5 μM, 1 hour) was 1.30, the “Fold Change T/C: Integrin beta-3 (Ab-773)” value (5 μM, 1 hour) was 1.08 and the “Fold Change T/C: Integrin beta-3 (Phospho-Tyr773)” value (5 μM, 1 hour) was 0.93. The “Fold Change T/C: Interferon-alpha/beta receptor alpha chain (Ab-466)” value (5 μM, 1 hour) was 0.90, the “Fold Change T/C: JAK2 (Ab-1007)” value (5 μM, 1 hour) was 1.36 and the “Fold Change T/C: JunB (Phospho-Ser259)” value (5 μM, 1 hour) was 0.79. The “Fold Change T/C: LCK (Ab-393)” value (5 μM, 1 hour) was 1.67, the “Fold Change T/C: LKB1 (Ab-334)” value (5 μM, 1 hour) was 0.94 and the “Fold Change T/C: LYN (Ab-507)” value (5 μM, 1 hour) was 0.58. The “Fold Change T/C: LYN (Phospho-Tyr507)” value (5 μM, 1 hour) was 1.06, the “Fold Change T/C: Lamin A/C (Ab-392)” value (5 μM, 1 hour) was 1.84 and the “Fold Change T/C: Lamin A/C (Phospho-Ser392)” value (5 μM, 1 hour) was 0.80. The “Fold Change T/C: MDM2 (Ab-166)” value (5 μM, 1 hour) was 1.49, the “Fold Change T/C: MEK1 (Ab-291)” value (5 μM, 1 hour) was 0.77 and the “Fold Change T/C: MEK1 (Phospho-Ser217)” value (5 μM, 1 hour) was 0.62. For the same molecule, the “Fold Change T/C: MITF (Ab-73)” value (5 μM, 1 hour) was 1.38, the “Fold Change T/C: MKK4/SEK1 (Ab-80)” value (5 μM, 1 hour) was 1.10 and the “Fold Change T/C: MSK1 (Ab-360)” value (5 μM, 1 hour) was 0.69. For the same molecule, the “Fold Change T/C: Myc (Ab-58)” value (5 μM, 1 hour) was 1.09, the “Fold Change T/C: NFkB-p65 (Ab-529)” value (5 μM, 1 hour) was 1.14 and the “Fold Change T/C: NFkB-p65 (Phospho-Ser311)” value (5 μM, 1 hour) was 1.00. For the same molecule, the “Fold Change T/C: NFkB-p65 (Phospho-Ser529)” value (5 μM, 1 hour) was 0.82, the “Fold Change T/C: NFkB-p100/p52 (Ab-865)” value (5 μM, 1 hour) was 0.76 and the “Fold Change T/C: NFkB-p100/p52 (Phospho-Ser865)” value (5 μM, 1 hour) was 0.88. For the same molecule, the “Fold Change T/C: NFkB-p105/p50 (Ab-927)” value (5 μM, 1 hour) was 0.85, the “Fold Change T/C: P38 MAPK (Ab-182)” value (5 μM, 1 hour) was 1.70 and the “Fold Change T/C: P38 MAPK (Phospho-Thr180/Tyr182)” value (5 μM, 1 hour) was 0.35. The “Fold Change T/C: P70S6K (Ab-229)” value (5 μM, 1 hour) was 1.33, the “Fold Change T/C: P70S6K (Phospho-Ser424)” value (5 μM, 1 hour) was 1.00 and the “Fold Change T/C: P90RSK (Ab-359/363)” value (5 μM, 1 hour) was 1.06. The “Fold Change T/C: P90RSK (Phospho-Thr359/Ser363)” value (5 μM, 1 hour) was 0.95, the “Fold Change T/C: PDK1 (Ab-241)” value (5 μM, 1 hour) was 1.24 and the “Fold Change T/C: PDK1 (Phospho-Ser241)” value (5 μM, 1 hour) was 1.14. For the same molecule, the “Fold Change T/C: PLCG1 (Phospho-Tyr783)” value (5 μM, 1 hour) was 2.25, the “Fold Change T/C: PLK1 (Ab-210)” value (5 μM, 1 hour) was 1.49 and the “Fold Change T/C: PLK1 (Phospho-Thr210)” value (5 μM, 1 hour) was 0.60. The “Fold Change T/C: PP1 alpha (Ab-320)” value (5 μM, 1 hour) was 1.15, the “Fold Change T/C: PP2A-alpha (Ab-307)” value (5 μM, 1 hour) was 1.23 and the “Fold Change T/C: PP2A-alpha (Phospho-Tyr307)” value (5 μM, 1 hour) was 0.93.
